Results: patent publication US6531509B2, “Stable gabapentin containing more than 20 ppm of chlorine ion” (Teva Pharmaceutical Industries Ltd., priority 2000, dated 2003)

Columns and labels:
[1] = according to Augart; cited from earlier work
[2] = Long-term storage stability of purified gabapentin (lactam formation, HPLC vs. standard); format: physicochemical; conditions: purified bulk gabapentin
Source text: Gabapentin purified according to these procedures contains less than 0.5% lactam as measured by HPLC vs. standard.

cardiozole cramp = conditions: in animals; cited from earlier work

SMILES | toxicity relative to gabapentin [1] | amount of lactam after storage ([2]; a year of storage at 25° C. and 50% relative humidity) | conversion of gabapentin to its corresponding lactam ([2]; a year of storage at 25° C. and 60% relative humidity) | amount of lactam after storage ([2]; a year of storage at 55° C. and 50% relative humidity) | effect against cardiozole cramp (cardiozole cramp)
O=C1CC2(CCCCC2)CN1 [lactam] | higher toxicity than gabapentin |  |  |  | 
NCC1(CC(=O)O)CCCCC1 [Gabapentin, 1-(aminomethyl)-1-cyclohexaneacetic acid] |  | less than 0.5 % by weight | ≤ 0.2 % by weight of gabapentin | less than 0.5 % by weight | protective effect against cardiozole cramp
